Measurements published in patent US10851096B2, “Aryl and heteroaryl amides for use as anti-proliferative, anti-thrombotic, and anti-viral agents” (Rutgers, The State University of New Jersey, priority 2016, dated 2020).

Biological target: T1, hAxl/IFN-γR1 (Homo sapiens, UniProt P30530)
T1 construct: containing human Axl extracellular domains and transmembrane and intracellular domains of human IFN-γR1; human IFN-γR1 transmembrane and intracellular domains (fusion partner); expressed in transfected cells
T1 sequence (P30530 26-451 limits assumed): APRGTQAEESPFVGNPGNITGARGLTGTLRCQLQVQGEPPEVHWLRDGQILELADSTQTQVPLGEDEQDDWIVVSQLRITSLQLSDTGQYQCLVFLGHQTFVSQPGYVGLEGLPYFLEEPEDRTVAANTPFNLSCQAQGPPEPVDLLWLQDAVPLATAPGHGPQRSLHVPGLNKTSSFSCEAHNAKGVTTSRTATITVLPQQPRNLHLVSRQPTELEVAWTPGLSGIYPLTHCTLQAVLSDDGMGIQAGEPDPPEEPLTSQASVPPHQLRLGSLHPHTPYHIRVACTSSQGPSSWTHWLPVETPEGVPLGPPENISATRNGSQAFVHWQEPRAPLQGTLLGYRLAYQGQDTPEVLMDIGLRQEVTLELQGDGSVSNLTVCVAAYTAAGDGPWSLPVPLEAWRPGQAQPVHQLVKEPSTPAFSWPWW
Test: hAxl/IFN-γR1 CHO reporter cell line assay, Gas6-induced activation (pSTAT1 immunoblot)
Format: cell-based
Settings: not given
Protocol: Stable HEK 293 cells secreting human Gas6 (clone 7.4.1) were allowed to achieve 70% confluence in a 10-cm plate. The complete medium with 10% FBS was then changed into serum free media in the presence of 10 µg/mL vitamin K1 (Phytonadione injectable emulsion from Hospira). After 72 hours, the Gas6 conditioned medium was collected, and validated for the presence of Gas6 and γ-carboxylation (by immunoblot) and activity of Gas6 (via activation of pSTAT1 in hAxl/γR1 cells).
Stable hAxl/IFN-γR1 CHO reporter cell lines (containing human Axl extracellular domains and transmembrane and intracellular domains of human IFN-γR1) were serum starved for 5 hrs±small molecule inhibitors and then stimulated with human Gas6 conditioned media±small molecule inhibitors for 30 minutes. For H1299 human non-small cell lung carcinoma and MDA-MB-231 human breast adenocarcinoma cell lines, the cells were serum starved overnight±small molecule inhibitors and stimulated with human Gas6 conditioned media±small molecule inhibitors for 30 minutes. Whole cell lysates of hAxl/IFN-γR1, H1299 and MDA-MB-231 cells were prepared using HNTG buffer (20 mM HEPES, pH 7.5, 150 mM NaCl, 10% glycerol, 1% Triton X-100, 1 mM PMSF, 1 mM Na3VO4, 10 mM Na2MoO4, 1 mM EDTA, 10 mM NaF and 20 μg/mL aprotinin). The resulting lysates were resolved on SDS-PAGE gel and immunoblotted with respective antibodies.
Immunoblot data were obtained within a linear range of exposure, and intensities were quantified by ImageJ. The levels of hAxl/IFN-γR1 cells lines activation were measured by pSTAT1 whereas the levels of H1299 and MDA-MB-231 cell lines activation were measured by pAxl signal intensities. Blots were normalized to intensities of respective β-actin or GAPDH protein loading controls. The levels of pSTAT1 or pAxl activation induced by Gas6±small molecule inhibitors were plotted as a fold of enhancement or reduction over intensities induced by Gas6 alone.

| SMILES | remaining activity at 10 µM |
| --- | --- |
| Cc1cc(CSc2ccccc2C(=O)N2CCN(Cc3ccc4c(c3)CCO4)CC2)no1 [1A] | 60% |
| Cc1cc(CSc2ccccc2C(=O)N2CCN(CC(=O)N3CCOCC3)CC2)no1 [1B] | 70% |
| Cc1cc(CSc2ccccc2C(=O)N2CCN(Cc3ccc(C#N)cc3)CC2)no1 [1C] | 60% |
| Cc1cc(CSc2ccccc2C(=O)N2CCN(Cc3ccncc3)CC2)no1 [1D] | 50% |
| Cc1nc(CSc2ccccc2C(=O)N2CCN(Cc3ccccc3)CC2)cs1 [1E] | 60% |
| Cc1cc(CSc2ccccc2C(=O)N2CCN(Cc3nc4ccccc4s3)CC2)no1 [1F] | 20% |
| O=C(c1ccccc1SCc1ccsc1)N1CCN(Cc2ccncc2)CC1 [1H] | 20% |
| Cc1cc(CSc2ncccc2C(=O)N2CCN(CC(=O)Nc3cccc(C)c3C)CC2)no1 [1K] | 80% |
| Cc1cc(CSc2ncccc2C(=O)N2CCN(CC(=O)Nc3ccccc3Cl)CC2)no1 [1L] | 20% |
| Cc1noc(C)c1CSc1ccccc1C(=O)N1CCN(Cc2cccs2)CC1 [1M] | 20% |
| Cc1cc(CSc2ccccc2C(=O)N2CCN(CC(=O)Nc3ccccc3Cl)CC2)no1 [1N] | 30% |
| O=C(c1ccccc1SCc1cccs1)N1CCN(Cc2ccncc2)CC1 [1O] | 40% |
| Cc1nc(COc2ccccc2C(=O)N2CCN(Cc3ccncc3)CC2)cs1 [1P] | 100% |
| Cc1cc(CSc2ccccc2C(=O)NCCNc2ccccc2[N+](=O)[O-])on1 [1R] | 40% |
| Cc1cc(CSc2ncccc2C(=O)NCCNc2ccc(C(F)(F)F)cc2[N+](=O)[O-])on1 [Compound 2] | 57% |
| Cc1cc(CSc2ncncc2C(=O)NCCNc2ccc(C(F)(F)F)cc2[N+](=O)[O-])on1 [Compound 3] | 26% |
| Cc1cc(CSc2nc(C)cc(C)c2C(=O)NCCNc2ccc(C(F)(F)F)cc2[N+](=O)[O-])on1 [Compound 4] | 83% |
| Cc1cc(CSc2ccccc2C(=O)NCCNc2nc3ccccc3s2)on1 [Compound 5] | 13% |
| Cc1cc(CSc2ccccc2C(=O)NCCNc2ccc(C(F)(F)F)cn2)on1 [Compound 6] | 6% |
| Cc1cc(CSc2ccccc2C(=O)NCCNc2nc3cc(C(F)(F)F)ccc3s2)on1 [Compound 7] | 33% |
| Cc1cc(CSc2ccccc2C(=O)NCCNc2ccc(C(F)(F)F)cc2C#N)on1 [Compound 8] | 9% |

| SMILES | remaining activity at 10 µM |
| --- | --- |
| Cc1cc(CSc2ccccc2C(=O)NCCNc2nc3ccccc3o2)on1 [Compound 9] | 20% |
| Cc1cc(CSc2ccccc2C(=O)NCCNc2ccc(F)cc2C#N)on1 [Compound 10] | 14% |
| Cc1cc(CSc2ccccc2C(=O)NCCNc2ccc(C(F)(F)F)c(C#N)c2)on1 [Compound 11] | 29% |
| Cc1cc(CSc2ccccc2C(=O)NCCNc2ccc(C#N)cc2)on1 [Compound 12] | 16% |
| Cc1cc(CSc2ccccc2C(=O)NCCNc2nc(C(F)(F)F)cs2)on1 [Compound 13] | 6% |
| Cc1cc(CSc2ccccc2C(=O)N2CCN(CC(=O)Nc3ccc(F)cc3)CC2)no1 [Compound 14] | 110% |
| Cc1cc(CSc2ccccc2C(=O)N2CCN(Cc3nc4ccccc4[nH]3)CC2)no1 [Compound 15] | 141% |
| Cc1cc(CSc2ccccc2C(=O)N2CCN(CC(=O)Nc3ccccc3F)CC2)no1 [Compound 16] | 109% |
| Cc1cc(CSc2ccccc2C(=O)N2CCN(CC(=O)Nc3ccc(Cl)cc3)CC2)no1 [Compound 17] | 79% |
| Cc1cc(CSc2ccccc2C(=O)N2CCN(CC(=O)Nc3ccc(Cl)cn3)CC2)no1 [Compound 18] | 46% |
| Cc1cc(CSc2ccccc2C(=O)N2CCN(Cc3nc4ccccc4o3)CC2)no1 [Compound 19] | 41% |
| Cc1cc(CSc2ccccc2C(=O)N2CCN(Cc3nc4cccc(Cl)c4o3)CC2)no1 [Compound 20] | 55% |
| Cc1cc(CSc2ccccc2C(=O)N2CCN(Cc3nc4cc(Cl)ccc4s3)CC2)no1 [Compound 21] | 8% |
| CCN(C(=O)CN1CCN(C(=O)c2ccccc2SCc2cc(C)on2)CC1)c1ccc(F)cc1 [Compound 22] | 108% |
| Cc1cc(CSc2ccccc2C(=O)N2CCN(Cc3nc4cc(C(F)(F)F)ccc4s3)CC2)no1 [Compound 23] | 8% |
| COc1ccc2nc(CN3CCN(C(=O)c4ccccc4SCc4cc(C)on4)CC3)sc2c1 [Compound 24] | 90% |
| Cc1ccc(NC(=O)CN2CCN(C(=O)c3ccccc3SCc3cc(C)on3)CC2)c(Cl)c1 [Compound 25] | 27% |
| Cc1cc(CSc2ccccc2C(=O)N2CCN(CC(=O)NCc3ccc(Cl)cc3)CC2)no1 [Compound 26] | 54% |
| Cc1cc(CSc2ccccc2C(=O)NCCNc2ncccn2)on1 [Compound 27] | 16% |
| Cc1cc(CSc2ccccc2C(=O)NCCNc2ncc(C(F)(F)F)cc2Cl)on1 [Compound 28] | 6% |

Biological target: T2, Tyro3 (Homo sapiens, UniProt Q06418)
T2 sequence (Q06418 41-890): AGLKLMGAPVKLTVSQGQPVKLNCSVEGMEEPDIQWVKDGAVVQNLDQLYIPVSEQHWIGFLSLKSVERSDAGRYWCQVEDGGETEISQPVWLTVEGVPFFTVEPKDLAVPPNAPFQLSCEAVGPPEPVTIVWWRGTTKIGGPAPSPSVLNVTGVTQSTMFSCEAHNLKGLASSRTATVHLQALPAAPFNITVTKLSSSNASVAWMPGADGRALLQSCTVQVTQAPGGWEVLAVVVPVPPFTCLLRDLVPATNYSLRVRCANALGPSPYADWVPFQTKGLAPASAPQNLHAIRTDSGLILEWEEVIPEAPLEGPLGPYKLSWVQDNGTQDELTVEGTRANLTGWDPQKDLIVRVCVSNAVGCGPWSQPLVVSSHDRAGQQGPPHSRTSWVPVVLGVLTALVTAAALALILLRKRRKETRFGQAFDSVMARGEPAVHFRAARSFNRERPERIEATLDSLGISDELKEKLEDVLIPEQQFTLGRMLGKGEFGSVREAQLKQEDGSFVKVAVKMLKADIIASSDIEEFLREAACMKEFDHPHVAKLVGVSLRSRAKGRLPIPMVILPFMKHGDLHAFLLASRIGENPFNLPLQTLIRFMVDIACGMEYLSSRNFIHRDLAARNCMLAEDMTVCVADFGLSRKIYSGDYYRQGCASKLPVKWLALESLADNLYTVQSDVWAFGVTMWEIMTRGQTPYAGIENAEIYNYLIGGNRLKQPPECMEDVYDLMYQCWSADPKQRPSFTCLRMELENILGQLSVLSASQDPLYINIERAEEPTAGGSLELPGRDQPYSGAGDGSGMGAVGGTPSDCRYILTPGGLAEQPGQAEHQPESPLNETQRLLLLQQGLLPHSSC
Test: not given
Settings: cited from earlier work

| SMILES | IC50 |
| --- | --- |
| Nc1nc(Nc2ccc3c(c2)CC[C@@H](N2CCCC2)CC3)nn1-c1cc2c(nn1)-c1ccccc1CCC2 [BGB324] | 1.4 µM |
